The values below come from patent publication US8623859B2, “Bradykinin B1 antagonists” (Evotec AG, priority 2008, dated 2014).

The structures appear in SMILES notation. Counter-ions that a name gives are not always drawn. Bounds are passed on as bounds.

This assay deals with T1, human B1 (Homo sapiens, UniProt P46663).
T1 construct: host or cells: CHO-K1
T1 sequence (P46663 1-353): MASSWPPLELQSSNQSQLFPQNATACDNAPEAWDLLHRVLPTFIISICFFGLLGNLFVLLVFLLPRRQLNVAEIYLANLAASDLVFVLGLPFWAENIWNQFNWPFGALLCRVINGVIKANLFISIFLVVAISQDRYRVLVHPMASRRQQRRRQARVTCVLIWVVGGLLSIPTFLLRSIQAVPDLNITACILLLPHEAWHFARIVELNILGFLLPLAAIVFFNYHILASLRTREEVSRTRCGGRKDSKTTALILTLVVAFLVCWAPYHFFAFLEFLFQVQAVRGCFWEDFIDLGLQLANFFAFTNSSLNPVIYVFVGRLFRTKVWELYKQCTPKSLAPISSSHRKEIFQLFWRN
The assay can be described thus: Calcium flux assay for Bradykinin B1 antagonist, CHO-K1 cell line expressing human B1. The format is cell-based. The note with it: CHO-K1 cells expressing human B1, agonist Lys-(Des-Arg)-Bradykinin, read-out: Potency (IC50 value against human B1). The method, boiled down:
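CHO-K1 cells expressing human B1, loaded with 5 μM Fluo-4AM (2 h, 37° C) in HEPES buffer pH 7.4 with probenecid and 0.1% BSA, were preincubated 30 min at 25° C with compound (8 concentrations, triplicate, 1% DMSO) before B1 agonist addition. Ca2+ fluorescence monitored at 538 nm; background-normalized integrated values plotted against log antagonist concentration.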
In general terms: Calcium flux is commonly read through the fluorescence of an indicator in the cells.
What is called IC50 is the concentration that gives 50% inhibition. For the compound `COc1cc(C)c(S(=O)(=O)N(C)Cc2cc(C(=O)N(C)Cc3ccc(CN4CCC(NC(C)=O)C4)cc3)co2)c(C)c1` (stereo not shown) [Ex 132, N-(4-{[3-(Acetylamino)pyrrolidin-1-yl]methyl}benzyl)-5-({[(4-methoxy-2,6-dimethylphenyl)sulfonyl](methyl)amino}methyl)-N-methylfuran-3-carboxamide], the 50% inhibitory concentration (IC50) lay in the range of 100 to 1000 nM.
Consider `COc1cc(C)c(S(=O)(=O)N(C)Cc2cc(C(=O)N(C)Cc3ccc(CN4CC(OC)C4)cc3)co2)c(C)c1` [Ex 133, N-{4-[(3-Methoxyazetidin-1-yl)methyl]benzyl}-5-({[(4-methoxy-2,6-dimethylphenyl)sulfonyl](methyl)amino}methyl)-N-methylfuran-3-carboxamide], for which the IC50 lay within 100 to 1000 nM.
The figure for `COc1cc(C)c(S(=O)(=O)N(C)Cc2cc(C(=O)N(C)Cc3ccc(CN4CCCC(O)C4)cc3)co2)c(C)c1` (stereo not shown) [Ex 134, N-{4-[(3-Hydroxypiperidin-1-yl)methyl]benzyl}-5-({[(4-methoxy-2,6-dimethylphenyl)sulfonyl](methyl)amino}methyl)-N-methylfuran-3-carboxamide] is less than 10 nM; for `COc1cc(C)c(S(=O)(=O)N(C)Cc2cc(C(=O)N(C)Cc3ccc(CN4CCC(O)C4)cc3)co2)c(C)c1` (stereo not shown) [Ex 135, N-{4-[(3-Hydroxypyrrolidin-1-yl)methyl]benzyl}-5-({[(4-methoxy-2,6-dimethylphenyl)sulfonyl](methyl)amino}methyl)-N-methylfuran-3-carboxamide] it is 10 to 100 nM; for `COc1cc(C)c(S(=O)(=O)N(C)Cc2cc(C(=O)N(C)Cc3ccc(CN4CCC(N(C)C)C4)cc3)co2)c(C)c1` (stereo not shown) [Ex 136, N-(4-{[3-(Dimethylamino)pyrrolidin-1-yl]methyl}benzyl)-5-({[(4-methoxy-2,6-dimethylphenyl)sulfonyl](methyl)amino}methyl)-N-methylfuran-3-carboxamide] it is 10 to 100 nM.
Under `COc1cc(C)c(S(=O)(=O)N(C)Cc2cc(C(=O)N(C)Cc3nnc(CN4CCCC4)s3)co2)c(C)c1` [Ex 137, 5-({[(4-Methoxy-2,6-dimethylphenyl)sulfonyl](methyl)amino}methyl)-N-methyl-N-{[5-(pyrrolidin-1-ylmethyl)-1,3,4-thiadiazol-2-yl]methyl}furan-3-carboxamide] stands 100 to 1000 nM; under `COc1cc(C)c(S(=O)(=O)N(C)Cc2cc(C(=O)N(C)Cc3nc(CN4CCCC4)cs3)co2)c(C)c1` [Ex 138, 5-({[(4-Methoxy-2,6-dimethylphenyl)sulfonyl](methyl)amino}methyl)-N-methyl-N-{[4-(pyrrolidin-1-ylmethyl)-1,3-thiazol-2-yl]methyl}furan-3-carboxamide], less than 10 nM; under `COc1cc(C)c(S(=O)(=O)N(Cc2cc(C(=O)N(C)Cc3ccc(CN4CCC(O)CC4)cc3)co2)C2CC2)c(C)c1` [Ex 139, 5-({Cyclopropyl[(4-methoxy-2,6-dimethylphenyl)sulfonyl]amino}methyl)-N-{4-[(4-hydroxypiperidin-1-yl)methyl]benzyl}-N-methylfuran-3-carboxamide], 10 to 100 nM.
The figure for `COc1cc(C)c(S(=O)(=O)N(Cc2cc(C(=O)N(C)Cc3ccc(CN4CCC(N(C)C)C4)cc3)co2)C2CC2)c(C)c1` (stereo not shown) [Ex 140, 5-({Cyclopropyl[(4-methoxy-2,6-dimethylphenyl)sulfonyl]amino}methyl)-N-(4-{[3-(dimethylamino)pyrrolidin-1-yl]methyl}benzyl)-N-methylfuran-3-carboxamide] is 10 to 100 nM; for `COc1cc(C)c(S(=O)(=O)N(Cc2cc(C(=O)N(C)Cc3ccc(CN4CCC(O)C4)cc3)co2)C2CC2)c(C)c1` (stereo not shown) [Ex 141, 5-({Cyclopropyl[(4-methoxy-2,6-dimethylphenyl)sulfonyl]amino}methyl)-N-{4-[(3-hydroxypyrrolidin-1-yl)methyl]benzyl}-N-methylfuran-3-carboxamide] it is 10 to 100 nM; for `COc1cc(C)c(S(=O)(=O)N(Cc2cc(C(=O)N(C)Cc3ccc(CN4CCCC(O)C4)cc3)co2)C2CC2)c(C)c1` (stereo not shown) [Ex 142, 5-({Cyclopropyl[(4-methoxy-2,6-dimethylphenyl)sulfonyl]amino}methyl)-N-{4-[(3-hydroxypiperidin-1-yl)methyl]benzyl}-N-methylfuran-3-carboxamide] it is less than 10 nM.
On to `COc1cc(C)c(S(=O)(=O)N(Cc2cc(C(=O)N(C)Cc3ccc(CN4CCC(OC)CC4)cc3)co2)C2CC2)c(C)c1` [Ex 143, 5-({Cyclopropyl[(4-methoxy-2,6-dimethylphenyl)sulfonyl]amino}methyl)-N-{4-[(4-methoxypiperidin-1-yl)methyl]benzyl}-N-methylfuran-3-carboxamide], for which the IC50 is 10 to 100 nM.
As to `COc1cc(C)c(S(=O)(=O)N(Cc2cc(C(=O)N(C)Cc3ccc(CN4CCCC(OC)C4)cc3)co2)C2CC2)c(C)c1` (stereo not shown) [Ex 144, 5-({Cyclopropyl[(4-methoxy-2,6-dimethylphenyl)sulfonyl]amino}methyl)-N-{4-[(3-methoxypiperidin-1-yl)methyl]benzyl}-N-methylfuran-3-carboxamide], the IC50 lay within 100 to 1000 nM.
Turning to `COc1cc(C)c(S(=O)(=O)N(Cc2cc(C(=O)N(C)Cc3ccc(CN4CCC(OC)C4)cc3)co2)C2CC2)c(C)c1` (stereo not shown) [Ex 145, 5-({Cyclopropyl[(4-methoxy-2,6-dimethylphenyl)sulfonyl]amino}methyl)-N-{4-[(3-methoxypyrrolidin-1-yl)methyl]benzyl}-N-methylfuran-3-carboxamide], the IC50 is 10 to 100 nM.
For the compound `COc1cc(C)c(S(=O)(=O)N(Cc2cc(C(=O)N(C)Cc3ccc(CN4CCC(NC(C)=O)C4)cc3)co2)C2CC2)c(C)c1` (stereo not shown) [Ex 146, N-(4-{[3-(Acetylamino)pyrrolidin-1-yl]methyl}benzyl)-5-({cyclopropyl[(4-methoxy-2,6-dimethylphenyl)sulfonyl]amino}methyl)-N-methylfuran-3-carboxamide], the IC50 lay within 100 to 1000 nM.
For the compound `COc1cc(C)c(S(=O)(=O)N(Cc2cc(C(=O)N(C)Cc3ccc(CN4CCC(C(=O)N(C)C)C4)cc3)co2)C2CC2)c(C)c1` (stereo not shown) [Ex 147, 1-(4-{[{[5-({Cyclopropyl[(4-methoxy-2,6-dimethylphenyl)sulfonyl]amino}methyl)furan-3-yl]carbonyl}(methyl)amino]methyl}benzyl)-N,N-dimethylpyrrolidine-3-carboxamide], the IC50 is 10 to 100 nM.
With `COc1cc(C)c(S(=O)(=O)N(Cc2cc(C(=O)N(C)Cc3ccc(CN4CC(O)C4)cc3)co2)C2CC2)c(C)c1` [Ex 148, 5-({Cyclopropyl[(4-methoxy-2,6-dimethylphenyl)sulfonyl]amino}methyl)-N-{4-[(3-hydroxyazetidin-1-yl)methyl]benzyl}-N-methylfuran-3-carboxamide], the half-inhibitory concentration (IC50) is 10 to 100 nM.
On to `COc1cc(C)c(S(=O)(=O)N(Cc2cc(C(=O)N(C)Cc3ccc(CN4CC(OC)C4)cc3)co2)C2CC2)c(C)c1` [Ex 149, 5-({Cyclopropyl[(4-methoxy-2,6-dimethylphenyl)sulfonyl]amino}methyl)-N-{4-[(3-methoxyazetidin-1-yl)methyl]benzyl}-N-methylfuran-3-carboxamide], for which the IC50 lay in the range of 100 to 1000 nM.
The figure for `CCN(Cc1ccc(CN2CCCC2)cc1)C(=O)c1coc(CN(C)S(=O)(=O)c2c(C)cc(OC)cc2C)c1` [Ex 150, N-Ethyl-5-({[(4-methoxy-2,6-dimethylphenyl)sulfonyl](methyl)amino}methyl)-N-[4-(pyrrolidin-1-ylmethyl)benzyl]furan-3-carboxamide trifluoroacetate] is 10 to 100 nM.
